Experiments:
DU145 cells [1] = test: Scratch assay and transwell migration assay; format: cell-based; settings: SRI 31215 10 μM, JNJ 38877605 1 μM; for fibroblast-induced migration: 18Co or WI38 conditioned media
Procedure: (§1) Cancer cells were seeded in 12-well plates and allowed to reach confluence. Following overnight serum-starvation, a scratch/wound was introduced into the cell monolayer with a sterile tip. Cells were cultured in serum-free media or were treated with recombinant HGF (10 ng/ml) or serum-free conditioned media from fibroblasts (50%) in the presence or absence of SRI 31215 or JNJ 38877605. Images of migrating cells were captured at 0, 12 and 24 hours after the treatment.
Cytoselect cell migration assay kit was purchased from Cell Biolabs, Inc and the assay was performed according to the manufacturer's instructions. Briefly, DU145 cells (75×10^3) were seeded in transwells ([…] inserts) in serum-free media and were stimulated with recombinant HGF or with conditioned media from 18Co or WI38 fibroblasts (in the absence or the presence of SRI 31215 or JNJ 38877605). Cells were incubated for 12 hours and non-migratory cells were gently removed from inside of the inserts. Inserts were stained for 10 minutes at room temperature, transferred to wells containing 200 μl of extraction buffer and incubated for 10 minutes on a shaker. The optical density (OD) was measured at 560 nm.

Caco2 cells = test: Response of Caco2 cells to EGFR inhibitors with fibroblast conditioned medium; format: cell-based; settings: SRI 31215 10 μM, JNJ 38877605 1 μM; for response to cetuximab in the presence of fibroblast-derived CM: 18Co CM; for fibroblast-mediated resistance to gefitinib: 18Co conditioned medium
Procedure: (§2) Figure 5 Inhibitors of HGF/MET signaling prevent the innate and acquired resistance to cetuximab A. and B. RKO cells were treated with cetuximab (50 μg/ml) (A) of gefitinib (B) alone, or in combination with SRI 31215 (10 μM), JNJ 38877605 (1 μM) or recombinant HAI-1 (20 nM) as indicated and clonogenic growth was monitored as described in Materials and Methods. C. and D. Caco2 cells were treated with cetuximab or gefitinib alone or in the presence of CM from fibroblasts and SRI 31215 (10 μM) or JNJ 38877605 (1 μM) as indicated. #: p<0.05, compared to control (CTRL); NS: not significant.
(§3) Cell titer-glo luminescent cell viability assay kit was purchased from Promega. […] For clonogenic assay, cells were seeded in 6-well plates at a density of 400 cells per well, serum starved overnight, and treated as indicated. After colony formation (8-12 days), cells were stained with crystal violet and the number of colonies was determined using ImageQuantTL (GE Health Care Life Sciences).

DiFi cells [2] = test: Caspase-Glo 3/7 Assay; format: cell-based; settings: fibroblast conditioned medium, 18h
Procedure: Figure 6 Fibroblasts inhibit the proapoptotic activity of EGFRi in an HGF-dependent manner A. and B. DiFi cells were treated with gefitinib (0.5 μM) or cetuximab (0.5 μg/ml) in the absence or the presence of conditioned medium from fibroblasts and SRI 31215 and JNJ 38877605 as indicated. The viability was determined after 72 hours. In B, fibroblast conditioned medium was incubated with anti HGF or anti-IL1β antibodies. C. and D. DiFi cells were treated with gefitinib (C) or cetuximab (D) in the presence of conditioned medium from fibroblasts and inhibitors of HGF/MET signaling as indicated for 18h. Caspase activity was assessed by the Caspase-Glo 3/7 Assay from Promega.
DiFi cells were seeded at a density of 20,000 cells/well in a 96 well plate and were treated with EGFRi in the absence or the presence of SRI 31215 or JNJ 38877605 for 18h. Caspase activity was assessed by the Caspase-Glo 3/7 Assay from Promega following the manufacturer's instructions.

DU145 cells [3] = tested on: DU145 cells; set-up: method as in PMID 26985294; settings: dose-dependent; cited from earlier work
RKO cells [4] = test: Basal, constitutive migration of RKO cells; format: cell-based; settings: data not shown
Procedure: as §1

DiFi cells [5] = test: Proliferation of DiFi cells induced by HGF or fibroblast conditioned medium; format: cell-based; settings: 48 hours; for fibroblast-induced proliferation: fibroblast conditioned medium
Procedure: Cell lysates from EBC cells were used as control for pMET. B. DiFi cells were cultured in the presence of
HGF or fibroblast conditioned medium in the absence or the presence of JNJ38877605 or SRI 31215 for 48 hours. Neutralization of HGF
in fibroblast conditioned medium by anti-HGF antibodies inhibits growth promoting activity of fibroblasts (data not shown). […]

recombinant human HGFA = target: T1, recombinant human HGFA (Homo sapiens, UniProt Q04756); test: Proteolytic activation of pro-HGF by HGFA (immunoblotting); format: biochemical; settings: SRI 31215 10 μM, HAI-1 20 nM, HGFA 1 nM
T1 construct: purchased R&D Systems
T1 sequence (Q04756 408-655 limits assumed): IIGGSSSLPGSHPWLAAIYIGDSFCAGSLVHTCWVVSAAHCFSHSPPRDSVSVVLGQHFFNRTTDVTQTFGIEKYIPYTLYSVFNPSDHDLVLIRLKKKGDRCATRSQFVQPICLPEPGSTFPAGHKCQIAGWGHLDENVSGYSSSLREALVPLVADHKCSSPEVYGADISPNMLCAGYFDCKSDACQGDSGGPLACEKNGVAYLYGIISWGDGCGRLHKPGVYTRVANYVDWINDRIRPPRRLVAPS
T1 sequence (Q04756 373-407 partner limits assumed): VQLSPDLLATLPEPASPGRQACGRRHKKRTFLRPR
Procedure: Recombinant human HAI-1, recombinant human HGFA, and recombinant human HGF propeptide (pro-HGF) were purchased from R&D Systems. SRI 31215 (10 μM) or recombinant human HAI-1 (20 nM) were mixed with activated recombinant human HGFA pro-peptide (1nM) in TNC buffer (pH 8.0) and incubated at room temperature for 30 minutes. Recombinant human pro-HGF (40 ng) was added and incubated at 37°C for 1 hour. The reaction was stopped by SDS-PAGE gel sample buffer and samples were boiled and separated by 12% PAGE. Proteins were transferred onto nitrocellulose membrane, blocked with 5% milk and immunoblotted using antibodies that recognize pro-HGF as well as α and β chains of activated HGF.

RKO cells [6] = test: Clonogenic growth and viability of HGF-producing RKO cells with EGFR inhibitors; format: cell-based; settings: SRI 31215 10 μM, JNJ 38877605 1 μM; for sensitization to gefitinib: HGF-producing RKO cells; for clonogenic growth, agent alone / clonogenic growth, combination with cetuximab: RKO cells, HAI-1 20 nM; for clonogenic growth, combination with cetuximab: cetuximab 50 μg/ml
Procedure: as §2, §3
Supplementary Figure S3: Inhibition of HGF/MET signaling sensitizes HGF-producing RKO colon cancer cells to gefitinib. A. RKO cells (HGF+) and B. HT29 (HGF-) cells were treated with gefitinib (5 μM) in the absence or the presence of SRI 31215 (10 μM) or JNJ 38877605 (1 μM) as indicated and viability was determined 24 and 72 hours after treatment. # indicates statistical significance compared to samples treated with gefitinib alone as determined by Students’ t-test (p<0.05).
(also on this page, place not known: www.impactjournals.com/oncotarget/ Oncotarget, Materials 2016 Supplementary (HGF +) (HGF -)) […]

HGFA-induced cleavage of pro-HGF into alpha and beta chains (recombinant human HGFA)	SMILES	fibroblast-induced migration (DU145 cells [1])	HGF-induced migration (DU145 cells [1])	response to cetuximab in the presence of fibroblast-derived CM (Caco2 cells)	fibroblast-mediated resistance to gefitinib (Caco2 cells)	gefitinib-induced activation of caspase 3 and caspase 7 in the presence of fibroblasts (DiFi cells [2])	concentration at which biological activity (block of scattering) was detected (DU145 cells [3])	basal, constitutive migration (RKO cells [4])	proliferation induced by recombinant, active HGF (DiFi cells [5])	fibroblast-induced proliferation (DiFi cells [5])	sensitization to gefitinib (RKO cells [6])	clonogenic growth, agent alone (RKO cells [6])	clonogenic growth, combination with cetuximab (RKO cells [6])
inhibited	CC1CN(CC2CCN(Cc3ccccc3)CC2)C(=O)N(c2cccc(C(=N)N)c2)C1 (stereo not drawn) [SRI 31215, 3-(3-((1-benzylpiperidin-4-yl)methyl)-5-methyl-2-oxotetrahydropyrimidin-1(2H)-yl)benzimidamide]	inhibited	did not interfere	restored the response	overcame	restored	1 μM	inhibit	did not influence	as efficient as JNJ 38877605 in preventing	sensitized	did not impact	significant decrease
	Cn1cc(-c2ccc3nnc(C(F)(F)c4ccc5ncccc5c4)n3n2)cn1 [JNJ 38877605, reference compound]	completely prevented	completely prevented	restored the response	overcame	restored		inhibit	prevented	prevented	sensitized	did not impact	significant decrease

Reference: article PMC5045412, “Inhibition of pro-HGF activation by SRI31215, a novel approach to block oncogenic HGF/MET signaling” (Oncotarget, 2016)
